These results are taken from paper PMC9609356, “Novel O-Methylglucoside Derivatives of Flavanone in Interaction with Model Membrane and Transferrin” (Membranes, 2022).

Common to all, as to assay: intrinsic tryptophan fluorescence quenching titration (static quenching; Ka, n = […])
Holding throughout (format): binding
Details in all cases: read-out: Ka (M^-1) × 10^4 (converted)

The target in assay [1] is T1, human holo-transferrin (HTF) (Homo sapiens, UniProt P02787).
T1 construct: gene TF

Assay [2] deals with T1, human holo-transferrin (HTF). This is another data set of the same source.
Assay [3] has the same target. The source holds these as a separate data set.

Read-outs that look alike come from different tables or passages of the source.

T1 sequence (P02787 20-698): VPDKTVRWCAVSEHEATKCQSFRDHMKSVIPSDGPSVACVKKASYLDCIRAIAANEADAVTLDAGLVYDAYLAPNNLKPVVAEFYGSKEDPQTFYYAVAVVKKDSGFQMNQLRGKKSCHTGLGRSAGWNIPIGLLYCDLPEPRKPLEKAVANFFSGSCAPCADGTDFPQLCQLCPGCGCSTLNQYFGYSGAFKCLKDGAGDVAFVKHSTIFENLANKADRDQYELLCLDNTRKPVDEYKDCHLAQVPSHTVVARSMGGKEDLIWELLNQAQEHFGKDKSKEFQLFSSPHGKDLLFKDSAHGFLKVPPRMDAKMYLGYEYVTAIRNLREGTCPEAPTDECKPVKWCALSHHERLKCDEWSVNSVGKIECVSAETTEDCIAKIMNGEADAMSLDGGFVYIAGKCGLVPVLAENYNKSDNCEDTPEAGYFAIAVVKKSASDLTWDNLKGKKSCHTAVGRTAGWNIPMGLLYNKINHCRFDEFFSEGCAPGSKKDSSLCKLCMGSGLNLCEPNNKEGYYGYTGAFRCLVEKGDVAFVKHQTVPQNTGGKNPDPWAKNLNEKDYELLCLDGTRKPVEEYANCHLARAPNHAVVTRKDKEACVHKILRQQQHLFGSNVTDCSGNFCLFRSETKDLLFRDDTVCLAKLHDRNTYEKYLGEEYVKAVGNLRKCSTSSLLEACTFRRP

`CO[C@H]1[C@H](O)[C@@H](O)[C@H](Oc2cc(C3CC(=O)c4cc(C)ccc4O3)ccc2O)O[C@@H]1CO` (stereo partly drawn) [MFA, 4′-hydroxy-6-methylflavanone 3′-O-β-D-(4′’-O-methyl)-glucopyranoside]: the Kd in assay [1] was 89.3 µM.
On to `CO[C@H]1[C@H](O)[C@@H](O)[C@H](Oc2cc(C3CC(=O)c4cc(CO)ccc4O3)ccc2O)O[C@@H]1CO` (stereo partly drawn) [MFB, 4′-hydroxy-6-hydroxymethylflavanone 3′-O-β-D-(4′’-O-methyl)-glucopyranoside], for which, in assay [2], the Kd is 68 µM.
In the case of `CO[C@H]1[C@H](O)[C@@H](O)[C@H](OCc2ccc3c(c2)C(=O)CC(c2ccc(O)cc2)O3)O[C@@H]1CO` (stereo partly drawn) [MFC, 4′-hydroxyflavanone 6-methylene-O-β-D-(4′’-O-methyl)-glucopyranoside], in assay [3], the Kd is 35.8 µM.
